Source: patent publication US20120225093A1, “Abrogating HIV-1 Infection via Drug-Induced Reactivation of Apoptosis” (UNIVERSITY OF MEDICINE AND DENTISTRY OF NEW JERSEY, priority 2010, published 2012)

Experiments:
[1] = test system: IL-10; experiment: IL-10 secretion by PBMC cultures (cytometric bead array); assay type: cell-based, human; details: CPX added at inoculation or 12 hr later; Phase I
Method: Uninfected PBMCs were co-incubated with infected PBMC stock in 24-well microplates at 2 ml/well Medium B, at a 10:1 ratio of uninfected-to-infected cells, and a total cell number of 1×10^6. Cultures were maintained and assayed for 6 consecutive days. CPX or Agent P2 was added at the time of inoculation or 12 hr later. Leaving the cell layer undisturbed, half the medium in each well was replenished every day, with concurrent adjustment of compound concentration. On each day during the 6-day experiments, a set of wells was harvested: the cells were processed for determination of viability and apoptosis, and the cell-free supernatants were stored at −80° C. for p24 and viral RNA measurements. Experiments were performed at least in duplicate and repeated at least twice.
p24 core antigen in the supernatant was quantified by ELISA (Retrotek HIV-1 p24™; ZeptoMetrix Corp.; Buffalo, N.Y.). HIV-1 RNA copy number in the supernatant was determined with a PCR-based and FDA-approved assay (Amplicor HIV-1 Monitor™; Roche Diagnostics Corp.; Indianapolis, Ind.). IFN-γ and IL-10 in the supernatant were determined by cytometric bead array (Human Th1/Th2 Cytokine Kit II™; BD Biosciences Pharmingen, San Jose, Calif.).
To further assess the cellular effects of CPX, the secretion of interferon (IFN)-γ and interleukin (IL)-10 was measured. […]

[2] = test system: HIV-1; experiment: Small trial of virological response to DEF in HIV-infected volunteers; assay type: in vivo, human

## Cc1cc(C2CCCCC2)n(O)c(=O)c1 [CPX, 6-cyclohexyl-1-hydroxy-4-methylpyridin-2[1H]-one]
[1]
  HIV-induced rise of IL-10: abolished the HIV-induced cytokine boost

## Cc1c(O)c(=O)ccn1C [DEF, 3-hydroxy-1,2-dimethylpyridin-4(1H)-one]
[2]
  virological response after drug withdrawal: persistent off-medicine antiretroviral activity even eight weeks after drug withdrawal
